Molecular target: T1, hTAS1R1 S172A/rTAS1R3 (UniProt Q7RTX1+Q923K1, S172A)
T1 construct: UniProtKB number Q7RTX1–1); The cDNA coding region of rTAS1R3 was synthesized with optimized-codon usage for human expression; expressed in transfected cells; host or cells: HEK293T/17
T1 sequence (Q7RTX1 21-841 S172A): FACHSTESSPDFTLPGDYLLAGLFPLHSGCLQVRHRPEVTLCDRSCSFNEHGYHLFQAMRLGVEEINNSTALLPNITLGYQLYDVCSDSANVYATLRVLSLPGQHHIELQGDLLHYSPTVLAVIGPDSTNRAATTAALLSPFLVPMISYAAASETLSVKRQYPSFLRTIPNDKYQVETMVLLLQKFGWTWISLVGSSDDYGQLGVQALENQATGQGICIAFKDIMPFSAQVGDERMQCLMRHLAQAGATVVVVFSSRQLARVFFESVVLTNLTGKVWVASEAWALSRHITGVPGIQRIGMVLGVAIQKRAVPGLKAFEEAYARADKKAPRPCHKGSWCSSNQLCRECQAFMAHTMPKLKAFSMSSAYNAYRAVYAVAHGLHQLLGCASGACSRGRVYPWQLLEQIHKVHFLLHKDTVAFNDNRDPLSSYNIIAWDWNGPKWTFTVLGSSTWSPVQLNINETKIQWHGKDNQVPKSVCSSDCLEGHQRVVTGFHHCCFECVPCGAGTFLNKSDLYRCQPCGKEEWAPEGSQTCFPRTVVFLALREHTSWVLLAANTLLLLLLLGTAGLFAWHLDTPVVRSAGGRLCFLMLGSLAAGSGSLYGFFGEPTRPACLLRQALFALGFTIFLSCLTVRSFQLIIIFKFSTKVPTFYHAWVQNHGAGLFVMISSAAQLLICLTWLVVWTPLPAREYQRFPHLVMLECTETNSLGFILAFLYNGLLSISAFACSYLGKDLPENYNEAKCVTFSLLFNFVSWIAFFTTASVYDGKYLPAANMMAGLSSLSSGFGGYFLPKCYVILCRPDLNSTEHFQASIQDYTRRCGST
T1 sequence (Q923K1 21-858): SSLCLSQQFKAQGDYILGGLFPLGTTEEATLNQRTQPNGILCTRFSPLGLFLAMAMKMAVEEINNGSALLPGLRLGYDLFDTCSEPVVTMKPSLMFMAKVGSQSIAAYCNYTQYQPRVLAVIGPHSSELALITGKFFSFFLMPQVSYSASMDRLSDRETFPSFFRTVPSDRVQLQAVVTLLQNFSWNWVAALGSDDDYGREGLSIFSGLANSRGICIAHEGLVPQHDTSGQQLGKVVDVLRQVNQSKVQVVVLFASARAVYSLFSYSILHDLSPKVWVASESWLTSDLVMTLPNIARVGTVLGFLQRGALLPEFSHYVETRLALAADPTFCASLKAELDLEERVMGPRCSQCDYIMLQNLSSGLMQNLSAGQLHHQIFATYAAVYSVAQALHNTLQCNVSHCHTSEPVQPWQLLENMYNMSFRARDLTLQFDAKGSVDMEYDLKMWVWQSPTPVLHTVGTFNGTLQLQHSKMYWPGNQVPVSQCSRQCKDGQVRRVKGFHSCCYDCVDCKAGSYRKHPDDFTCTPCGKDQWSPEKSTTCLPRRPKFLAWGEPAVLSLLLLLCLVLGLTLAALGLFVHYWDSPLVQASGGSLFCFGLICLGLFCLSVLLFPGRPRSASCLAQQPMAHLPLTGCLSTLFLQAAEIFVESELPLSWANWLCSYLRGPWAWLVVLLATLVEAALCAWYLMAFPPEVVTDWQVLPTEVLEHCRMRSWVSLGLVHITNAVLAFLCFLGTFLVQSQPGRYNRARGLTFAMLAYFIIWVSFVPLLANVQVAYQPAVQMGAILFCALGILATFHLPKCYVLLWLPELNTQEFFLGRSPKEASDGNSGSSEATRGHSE
Test: Calcium assay, hTAS1R1 mutant co-expressed with rTAS1R3
Format: cell-based, human, rat
Details: for response to the agonist alone, vs WT: S172A
Excerpt: Chimeric Gα proteins, such as Gα16Gust44, Gα16Gi3 or Gα15i2, are widely used in the functional expression of TAS1R receptors ([Backes et al., 2015]; [Suess et al., 2015]; [Toda et al., 2021], [Toda et al., 2013], [Toda et al., 2018]; [Zhang et al., 2008]). Chimeric Gα15i2 (([Toda et al., 2013]), Supplementary data) was generated by replacing the last five residues of the C-terminal tail of rat Gα15i2 (EINLL) (UniProt number G3V6N8; https://www.uniprot.org/uniprot/) with the counterpart sequence from human GNAI2 (DCGLF) (UniProt number P04899-1) and cloning into the pcDNA3.1/Hygro vector (Invitrogen, Thermo Fisher Scientific, Illkirch, France) between the HindIII and NotI restriction sites, resulting in the plasmid pcDNA3.1-Gα15i2. Chimeric Gα16Gust44 construct have already been reported ([Raliou et al., 2011]). Briefly, Gα16Gust44 was generated by replacing the C-terminal of Gα16 with the C-terminal 44 residues of gustducin. As previously described, hTAS1R1 was amplified from human fungiform papillae cDNA and cloned and inserted into pcDNA3 (Invitrogen), generating pcDNA3-TAS1R1-WT (wild-type) ([Raliou et al., 2011]). […] The cDNA coding region of rTAS1R3 was synthesized with optimized-codon usage for human expression (Genewiz) and was cloned and inserted into the mammalian pcDNA4/myc-HisA (Invitrogen) expression vector between the EcoRI and NotI restriction sites, resulting in the plasmid pcDNA4-rTAS1R3. […] The sequence integrity of all the plasmid constructs was verified via automated DNA sequencing (Genewiz).
The hTAS1R1 mutants were co-expressed with the rTAS1R3 subunit in HEK293 cells. […] As a control, the functionality of the mutated receptors was checked after stimulation with S807 (Fig. S8), which interacts with TAS1R1-TMD ([Zhang et al., 2008]).

Structure (SMILES) | EC50 [mM] | response to the agonist alone, vs WT
N[C@@H](CCC(=O)N[C@@H](CS)C(=O)NCC(=O)O)C(=O)O [GSH, γ-L-glutamyl-L-cysteinyl-glycine] | > 30 | fully abolished
N[C@@H](CCC(=O)O)C(=O)O [L-Glu, L-glutamic acid, reference compound] | – | completely suppressed
CCCC(CCC)NC(=O)c1ccc2c(c1)OCO2 [S807, N-(heptan-4-yl)benzo[d][1,3]dioxole-5-carboxamide, reference compound] | – | strongly affected
